For orientation: IC50 means the point on the concentration scale where inhibition reaches its midpoint.

Chain of Mcl-1 protein (Q07820 whole entry): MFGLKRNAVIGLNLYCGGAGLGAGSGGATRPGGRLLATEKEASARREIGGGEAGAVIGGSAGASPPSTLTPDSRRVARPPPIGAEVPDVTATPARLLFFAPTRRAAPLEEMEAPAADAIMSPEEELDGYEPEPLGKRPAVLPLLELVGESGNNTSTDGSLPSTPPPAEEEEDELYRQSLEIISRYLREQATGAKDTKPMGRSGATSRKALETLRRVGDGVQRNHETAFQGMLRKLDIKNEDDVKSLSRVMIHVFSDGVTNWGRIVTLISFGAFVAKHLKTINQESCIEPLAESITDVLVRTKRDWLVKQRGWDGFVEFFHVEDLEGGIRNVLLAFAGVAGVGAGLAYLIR

The test has as its target Mcl-1 protein (Homo sapiens, UniProt Q07820). Put plainly: Inhibition of Mcl-1 by the fluorescence polarisation technique. The test is classed as binding. The settings on record: fluorescence polarisation test; Fluorescein labelled ligand 1 nM, Mcl-1 protein 5 nM, ~2 hours at r.t.; read-out: IC50 (M) Mcl-1 FP. As to the method: The relative binding potency of each compound was determined via Fluorescence Polarisation (FP). The method utilised a Fluorescein labelled ligand (Fluorescein-βAla-Ahx-A-REIGAQLRRMADDLNAQY-OH; mw 2,765) which binds to the Mcl-1 protein (such that Mcl-1 corresponds to the UniProtKB® primary accession number: Q07820) leading to an increased anisotropy measured in milli-polarisation (mP) units using a reader. The addition of a compound which binds competitively to the same site as the ligand will result in a greater proportion of unbound ligand in the system indicated by a decrease in mP units.
An 11 point serial dilution of each compound was prepared in DMSO and 2 μl transferred into flat bottomed, low binding, 384-well plate (final DMSO concentration 5%). 38 μl of buffer (10 mM 4-(2-hydroxyethyl)-1-piperazineethanesulfonic acid [HEPES], 150 mM NaCl, 0.05% Tween 20, pH 7.4), containing the Fluorescein labelled ligand (final concentration 1 nM) and Mcl-1 protein (final concentration 5 nM) was then added.
Assay plates were incubated ˜2 hours at r.t. before FP was measured on a Biomek Synergy2 reader (Ex. 528 nm, Em. 640 nm, Cut off 510 nm) and mP units calculated. The binding of increasing doses of test compound was expressed as a percentage reduction in mP compared to a window established between ‘5% DMSO only’ and ‘100% inhibition’ controls. 11-point dose response curves were plotted with XL-Fit software using a 4-Parameter Logistic Model (Sigmoidal Dose-Response Model) and the inhibitory concentrations that gave a 50% reduction in mP (IC50) were determined.
Turning to `Cc1c(-c2c(-c3ccc(F)cc3)sc3ncnc(OC(Cc4ccccc4OCc4ccnc(-c5ccc(OCCN6CCOCC6)cc5)n4)C(=O)O)c23)ccc(OCCN2CCN(C)CC2)c1Cl` [Example 56, (2R)-2-{[(5Sa)-5-{3-chloro-2-methyl-4-[2-(4-methylpiperazin-1-yl)ethoxy]phenyl}-6-(4-fluorophenyl)thieno[2,3-d]pyrimidin-4-yl]oxy}-3-{2-[(2-{4-[2-(morpholin-4-yl)ethoxy]phenyl}pyrimidin-4-yl)methoxy]phenyl}propanoic acid], the IC50 is 4.75e-09 M. Turning to `Cc1c(-c2c(-c3ccc(F)cc3)sc3ncnc(OC(Cc4ccccc4OCc4ccnc(-c5cnc(CO)nc5)n4)C(=O)O)c23)ccc(OCCN2CCN(C)CC2)c1Cl` [Example 82, (2R)-2-{[(5Sa)-5-{3-chloro-2-methyl-4-[2-(4-methylpiperazin-1-yl)ethoxy]phenyl}-6-(4-fluorophenyl)thieno[2,3-d]pyrimidin-4-yl]oxy}-3-(2-{[2′-(hydroxymethyl)-2,5′-bipyrimidin-4-yl]methoxy}phenyl)propanoic acid], the IC50 was 7.7e-09 M. Under `Cc1c(-c2c(-c3ccc(F)cc3)sc3ncnc(OC(Cc4ccccc4OCc4ccnc(-c5ccc(OCC6COC(C)(C)O6)cc5)n4)C(=O)O)c23)ccc(OCCN2CCN(C)CC2)c1Cl` [Example 55, (2R)-2-{[(5Sa)-5-{3-chloro-2-methyl-4-[2-(4-methylpiperazin-1-yl)ethoxy]phenyl}-6-(4-fluorophenyl)thieno[2,3-d]pyrimidin-4-yl]oxy}-3-{2-[(2-{4-[(2,2-dimethyl-1,3-dioxolan-4-yl)methoxy]phenyl}pyrimidin-4-yl)methoxy]phenyl}propanoic acid] stands 6.35e-09 M.

In the case of `CCOC(=O)OC(C)OC(=O)C(Cc1ccccc1OCc1ccnc(-c2cccc(OC(COC)COC)c2)n1)Oc1ncnc2sc(-c3ccc(F)cc3)c(-c3ccc(OCCN4CCN(C)CC4)c(Cl)c3C)c12` [Example 69, 1-[(ethoxycarbonyl)oxy]ethyl (2R)-2-{[(5Sa)-5-{3-chloro-2-methyl-4-[2-(4-methylpiperazin-1-yl)ethoxy]phenyl}-6-(4-fluorophenyl)thieno[2,3-d]pyrimidin-4-yl]oxy}-3-{2-[(2-{3-[(1,3-dimethoxypropan-2-yl)oxy]phenyl}pyrimidin-4-yl)methoxy]phenyl}propanoate], the IC50 was 7.6e-08 M. In the case of `Cc1c(-c2c(-c3ccc(F)cc3)sc3ncnc(OC(Cc4ccccc4OCc4ccnc(-c5cncc(CO)c5)n4)C(=O)O)c23)ccc(OCCN2CCN(C)CC2)c1Cl` [Example 79, (2R)-2-{[(5Sa)-5-{3-chloro-2-methyl-4-[2-(4-methylpiperazin-1-yl)ethoxy]phenyl}-6-(4-fluorophenyl)thieno[2,3-d]pyrimidin-4-yl]oxy}-3-[2-({2-[5-(hydroxymethyl)pyridin-3-yl]pyrimidin-4-yl}methoxy)phenyl]propanoic acid], the IC50 came to 7.6e-09 M. Under `Cc1c(-c2c(-c3ccc(F)cc3)sc3ncnc(OC(Cc4ccccc4OCc4ccnc(-c5cccc(OCCN(CCO)CCO)c5)n4)C(=O)O)c23)ccc(OCCN2CCN(C)CC2)c1Cl` [Example 49, (2R)-3-(2-{[2-(3-{2-[bis(2-hydroxyethyl)amino]ethoxy}phenyl)pyrimidin-4-yl]methoxy}phenyl)-2-{[(5Sa)-5-{3-chloro-2-methyl-4-[2-(4-methylpiperazin-1-yl)ethoxy]phenyl}-6-(4-fluorophenyl)thieno[2,3-d]pyrimidin-4-yl]oxy}propanoic acid] stands 4.65e-09 M; under `Cc1c(-c2c(-c3ccc(F)cc3)sc3ncnc(OC(Cc4ccccc4OCc4ccnc(-c5ccc(OCCN(CCO)CCO)cc5)n4)C(=O)O)c23)ccc(OCCN2CCN(C)CC2)c1Cl` [Example 53, (2R)-3-(2-{[2-(4-{2-[bis(2-hydroxyethyl)amino]ethoxy}phenyl)pyrimidin-4-yl]methoxy}phenyl)-2-{[(5Sa)-5-{3-chloro-2-methyl-4-[2-(4-methylpiperazin-1-yl)ethoxy]phenyl}-6-(4-fluorophenyl)thieno[2,3-d]pyrimidin-4-yl]oxy}propanoic acid], 4.65e-09 M; under `Cc1c(-c2c(-c3ccc(F)cc3)sc3ncnc(OC(Cc4ccccc4OCc4ccnc(-c5cccc(OCCN6CCOCC6)c5)n4)C(=O)O)c23)ccc(OCCN2CCN(C)CC2)c1Cl` [Example 51, (2R)-2-{[(5Sa)-5-{3-chloro-2-methyl-4-[2-(4-methylpiperazin-1-yl)ethoxy]phenyl}-6-(4-fluorophenyl)thieno[2,3-d]pyrimidin-4-yl]oxy}-3-{2-[(2-{3-[2-(morpholin-4-yl)ethoxy]phenyl}pyrimidin-4-yl)methoxy]phenyl}propanoic acid], 4.15e-09 M. Under `Cc1c(-c2c(-c3ccc(F)cc3)sc3ncnc(OC(Cc4ccccc4OCc4ccnc(-c5ccc(OCCOCCOCCO)cc5)n4)C(=O)O)c23)ccc(OCCN2CCN(C)CC2)c1Cl` [Example 54, (2R)-2-{[(5Sa)-5-{3-chloro-2-methyl-4-[2-(4-methylpiperazin-1-yl)ethoxy]phenyl}-6-(4-fluorophenyl)thieno[2,3-d]pyrimidin-4-yl]oxy}-3-(2-{[2-(4-{2-[2-(2-hydroxyethoxy)ethoxy]ethoxy}phenyl)pyrimidin-4-yl]methoxy}phenyl)propanoic acid] stands 4.6e-09 M.

On to “(2R)-2-{[(5Sa)-5-{2,3-dimethyl-4-[2-(4-methylpiperazin-1-yl)ethoxy]phenyl}-6-(4-fluorophenyl)thieno[2,3-d]pyrimidin-4-yl]oxy}-3-{2-[(2-{3-[({[2-(piperidin-1-yl)ethyl]carbamoyl}oxy)methyl]phenyl}pyrimidin-4-yl)methoxy]phenyl}propanoic acid [Example 50]”, for which the IC50 was 6.6e-09 M. Under `Cc1c(-c2c(-c3ccc(F)cc3)sc3ncnc(OC(Cc4ccccc4OCc4ccnc(-c5cccc(OCCN(C)C)c5)n4)C(=O)O)c23)ccc(OCCN2CCN(C)CC2)c1Cl` [Example 52, (2R)-2-{[(5Sa)-5-{3-chloro-2-methyl-4-[2-(4-methylpiperazin-1-yl)ethoxy]phenyl}-6-(4-fluorophenyl)thieno[2,3-d]pyrimidin-4-yl]oxy}-3-{2-[(2-{3-[2-(dimethylamino)ethoxy]phenyl}pyrimidin-4-yl)methoxy]phenyl}propanoic acid] stands 3.7e-09 M. In the case of `COCCOCCOCCOc1cccc(-c2nccc(COc3ccccc3CC(Oc3ncnc4sc(-c5ccc(F)cc5)c(-c5ccc(OCCN6CCN(C)CC6)c(Cl)c5C)c34)C(=O)O)n2)c1` [Example 48, (2R)-2-{[(5Sa)-5-{3-chloro-2-methyl-4-[2-(4-methylpiperazin-1-yl)ethoxy]phenyl}-6-(4-fluorophenyl)thieno[2,3-d]pyrimidin-4-yl]oxy}-3-(2-{[2-(3-{2-[2-(2-methoxyethoxy)ethoxy]ethoxy}phenyl)pyrimidin-4-yl]methoxy}phenyl)propanoic acid] it was 3.85e-09 M.

(Values after patent US10322131B2, “Hydroxyacid derivatives, a process for their preparation and pharmaceutical compositions containing them” (LES LABORATOIRES SERVIER, priority 2015, dated 2019).)
